According to patent US10168342B2, “Lipid probes and uses thereof” (THE SCRIPPS RESEARCH INSTITUTE, priority 2015, dated 2019):

What was measured:
Assay type in all cases: cell-based
[1] = molecular target: T1, lipid-binding proteins in Neuro2a cells (Mus musculus, UniProt Q8VCD6); assay: SILAC MS mapping of lipid probe targets (probe-versus-No UV, probe-versus-probe) in Neuro2a cells; settings: A-DA probe, No UV control, target protein Reep2 (Q8VCD6)
T1 construct: endogenous in cells; host or cells: Neuro2a

[2] = molecular target: T2, lipid-binding proteins in A549 cells (Homo sapiens, UniProt O15173); assay: SILAC MS mapping of UV-dependent lipid probe targets in A549 cells; settings: A-DA probe vs NoUV
T2 construct: endogenous in cells; host or cells: A549 (PMA-stimulated for the PTGS2 experiments)

[3] = molecular target: T3, lipid-binding proteins in A549 cells (Homo sapiens, UniProt O75911); assay: as above; settings: A-DA probe vs NoUV
T3 construct: endogenous in cells; host or cells: A549 (PMA-stimulated for the PTGS2 experiments)

[4] = molecular target: T4, lipid-binding proteins in A549 cells (Homo sapiens, UniProt O95470); assay: as above; settings: A-DA probe vs NoUV
T4 construct: endogenous in cells; host or cells: A549 (PMA-stimulated for the PTGS2 experiments)

[5] = molecular target: T5, lipid-binding proteins in A549 cells (Homo sapiens, UniProt P07093); assay: as above; settings: protein SERPINE2 (P07093), A-DA probe
T5 construct: endogenous in cells; host or cells: A549 (PMA-stimulated for the PTGS2 experiments)

[6] = molecular target: T6, lipid-binding proteins in A549 cells (Homo sapiens, UniProt P07602); assay: as above; settings: A-DA probe vs NoUV
T6 construct: endogenous in cells; host or cells: A549 (PMA-stimulated for the PTGS2 experiments)

[7] = molecular target: T7, lipid-binding proteins in A549 cells (Homo sapiens, UniProt P21796); assay: as above; settings: A-DA probe vs NoUV
T7 construct: endogenous in cells; host or cells: A549 (PMA-stimulated for the PTGS2 experiments)

[8] = molecular target: T8, lipid-binding proteins in A549 cells (Homo sapiens, UniProt P30519); assay: as above; settings: A-DA probe vs NoUV
T8 construct: endogenous in cells; host or cells: A549 (PMA-stimulated for the PTGS2 experiments)

[9] = molecular target: T9, lipid-binding proteins in A549 cells (Homo sapiens, UniProt P35354); assay: as above
T9 construct: endogenous in cells; host or cells: A549 (PMA-stimulated for the PTGS2 experiments)

[10] = molecular target: T10, lipid-binding proteins in A549 cells (Homo sapiens, UniProt P45880); assay: as above; settings: A-DA probe vs NoUV
T10 construct: endogenous in cells; host or cells: A549 (PMA-stimulated for the PTGS2 experiments)

[11] = molecular target: T11, lipid-binding proteins in A549 cells (Homo sapiens, UniProt P50402); assay: as above; settings: A-DA probe vs NoUV
T11 construct: endogenous in cells; host or cells: A549 (PMA-stimulated for the PTGS2 experiments)

[12] = molecular target: T12, lipid-binding proteins in A549 cells (Homo sapiens, UniProt P67812); assay: as above; settings: A-DA probe vs NoUV
T12 construct: endogenous in cells; host or cells: A549 (PMA-stimulated for the PTGS2 experiments)

[13] = molecular target: T13, lipid-binding proteins in A549 cells (Homo sapiens, UniProt Q14534); assay: as above; settings: A-DA probe vs NoUV
T13 construct: endogenous in cells; host or cells: A549 (PMA-stimulated for the PTGS2 experiments)

[14] = molecular target: T14, lipid-binding proteins in A549 cells (Homo sapiens, UniProt Q15738); assay: as above; settings: A-DA probe vs NoUV
T14 construct: endogenous in cells; host or cells: A549 (PMA-stimulated for the PTGS2 experiments)

[15] = molecular target: T15, lipid-binding proteins in A549 cells (Homo sapiens, UniProt Q53GQ0); assay: as above; settings: A-DA probe vs NoUV
T15 construct: endogenous in cells; host or cells: A549 (PMA-stimulated for the PTGS2 experiments)

[16] = molecular target: T16, lipid-binding proteins in A549 cells (Homo sapiens, UniProt Q5HYK3); assay: as above; settings: A-DA probe vs NoUV
T16 construct: endogenous in cells; host or cells: A549 (PMA-stimulated for the PTGS2 experiments)

[17] = molecular target: T17, lipid-binding proteins in A549 cells (Homo sapiens, UniProt Q6P1A2); assay: as above; settings: A-DA probe vs NoUV
T17 construct: endogenous in cells; host or cells: A549 (PMA-stimulated for the PTGS2 experiments)

[18] = molecular target: T18, lipid-binding proteins in A549 cells (Homo sapiens, UniProt Q7Z2K6); assay: as above; settings: A-DA probe vs NoUV
T18 construct: endogenous in cells; host or cells: A549 (PMA-stimulated for the PTGS2 experiments)

[19] = molecular target: T19, lipid-binding proteins in A549 cells (Homo sapiens, UniProt Q86XL3); assay: as above; settings: A-DA probe vs NoUV
T19 construct: endogenous in cells; host or cells: A549 (PMA-stimulated for the PTGS2 experiments)

[20] = molecular target: T20, lipid-binding proteins in A549 cells (Homo sapiens, UniProt Q8IZV5); assay: as above; settings: A-DA probe vs NoUV
T20 construct: endogenous in cells; host or cells: A549 (PMA-stimulated for the PTGS2 experiments)

[21] = molecular target: T21, lipid-binding proteins in A549 cells (Homo sapiens, UniProt Q8N5I4); assay: as above; settings: A-DA probe vs NoUV
T21 construct: endogenous in cells; host or cells: A549 (PMA-stimulated for the PTGS2 experiments)

[22] = molecular target: T22, lipid-binding proteins in A549 cells (Homo sapiens, UniProt Q8NF37); assay: as above; settings: A-DA probe vs NoUV
T22 construct: endogenous in cells; host or cells: A549 (PMA-stimulated for the PTGS2 experiments)

[23] = molecular target: T23, lipid-binding proteins in A549 cells (Homo sapiens, UniProt Q96G23); assay: as above; settings: A-DA probe vs NoUV
T23 construct: endogenous in cells; host or cells: A549 (PMA-stimulated for the PTGS2 experiments)

[24] = molecular target: T24, lipid-binding proteins in A549 cells (Homo sapiens, UniProt Q96KC8); assay: as above; settings: A-DA probe vs NoUV
T24 construct: endogenous in cells; host or cells: A549 (PMA-stimulated for the PTGS2 experiments)

[25] = molecular target: T25, lipid-binding proteins in A549 cells (Homo sapiens, UniProt Q99536); assay: as above; settings: A-DA probe vs NoUV
T25 construct: endogenous in cells; host or cells: A549 (PMA-stimulated for the PTGS2 experiments)

[26] = molecular target: T26, lipid-binding proteins in A549 cells (Homo sapiens, UniProt Q9BTX1); assay: as above; settings: A-DA probe vs NoUV
T26 construct: endogenous in cells; host or cells: A549 (PMA-stimulated for the PTGS2 experiments)

[27] = molecular target: T27, lipid-binding proteins in A549 cells (Homo sapiens, UniProt Q9H6K4); assay: as above; settings: A-DA probe vs NoUV
T27 construct: endogenous in cells; host or cells: A549 (PMA-stimulated for the PTGS2 experiments)

[28] = molecular target: T28, lipid-binding proteins in A549 cells (Homo sapiens, UniProt Q9HAW7); assay: as above; settings: A-DA probe vs NoUV
T28 construct: endogenous in cells; host or cells: A549 (PMA-stimulated for the PTGS2 experiments)

[29] = molecular target: T29, lipid-binding proteins in A549 cells (Homo sapiens, UniProt Q9NS69); assay: as above; settings: A-DA probe vs NoUV
T29 construct: endogenous in cells; host or cells: A549 (PMA-stimulated for the PTGS2 experiments)

[30] = molecular target: T30, lipid-binding proteins in A549 cells (Homo sapiens, UniProt Q9NX47); assay: as above; settings: A-DA probe vs NoUV
T30 construct: endogenous in cells; host or cells: A549 (PMA-stimulated for the PTGS2 experiments)

[31] = molecular target: T31, lipid-binding proteins in A549 cells (Homo sapiens, UniProt Q9UH99); assay: as above; settings: protein SUN2 (Q9UH99), A-DA probe
T31 construct: endogenous in cells; host or cells: A549 (PMA-stimulated for the PTGS2 experiments)

[32] = molecular target: T32, lipid-binding proteins in A549 cells (Homo sapiens, UniProt Q9Y639); assay: as above; settings: A-DA probe vs NoUV
T32 construct: endogenous in cells; host or cells: A549 (PMA-stimulated for the PTGS2 experiments)

T9 sequence (P35354 18-604): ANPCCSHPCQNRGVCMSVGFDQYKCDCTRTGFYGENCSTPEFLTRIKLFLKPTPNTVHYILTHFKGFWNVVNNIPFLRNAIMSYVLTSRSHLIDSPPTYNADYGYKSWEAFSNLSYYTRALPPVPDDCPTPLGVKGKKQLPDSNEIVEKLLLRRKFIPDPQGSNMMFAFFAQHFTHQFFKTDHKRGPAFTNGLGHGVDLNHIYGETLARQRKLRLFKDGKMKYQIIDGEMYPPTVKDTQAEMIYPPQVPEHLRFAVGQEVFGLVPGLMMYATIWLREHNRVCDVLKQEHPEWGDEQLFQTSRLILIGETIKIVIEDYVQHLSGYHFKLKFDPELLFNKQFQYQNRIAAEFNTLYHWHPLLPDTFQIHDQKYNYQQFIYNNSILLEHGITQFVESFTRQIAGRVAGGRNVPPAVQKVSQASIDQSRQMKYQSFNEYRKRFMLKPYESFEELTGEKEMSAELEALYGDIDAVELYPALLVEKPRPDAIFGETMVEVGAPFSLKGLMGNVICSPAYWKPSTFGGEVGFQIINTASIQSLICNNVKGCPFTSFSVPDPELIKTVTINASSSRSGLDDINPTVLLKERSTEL
T11 sequence (P50402 whole entry): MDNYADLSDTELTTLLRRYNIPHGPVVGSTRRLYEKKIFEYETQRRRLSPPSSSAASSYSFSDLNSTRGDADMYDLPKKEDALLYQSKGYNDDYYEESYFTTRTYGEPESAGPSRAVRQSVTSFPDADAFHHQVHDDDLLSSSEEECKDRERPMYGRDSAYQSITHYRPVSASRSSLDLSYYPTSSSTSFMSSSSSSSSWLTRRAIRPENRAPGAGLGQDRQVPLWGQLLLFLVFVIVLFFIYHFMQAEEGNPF
T2 sequence (O15173 whole entry): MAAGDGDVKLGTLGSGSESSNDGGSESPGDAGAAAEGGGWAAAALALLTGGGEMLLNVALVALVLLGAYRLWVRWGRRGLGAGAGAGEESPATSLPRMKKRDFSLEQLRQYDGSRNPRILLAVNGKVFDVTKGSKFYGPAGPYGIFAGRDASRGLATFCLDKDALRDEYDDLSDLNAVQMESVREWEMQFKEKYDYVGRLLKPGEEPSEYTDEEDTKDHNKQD
T17 sequence (Q6P1A2 whole entry): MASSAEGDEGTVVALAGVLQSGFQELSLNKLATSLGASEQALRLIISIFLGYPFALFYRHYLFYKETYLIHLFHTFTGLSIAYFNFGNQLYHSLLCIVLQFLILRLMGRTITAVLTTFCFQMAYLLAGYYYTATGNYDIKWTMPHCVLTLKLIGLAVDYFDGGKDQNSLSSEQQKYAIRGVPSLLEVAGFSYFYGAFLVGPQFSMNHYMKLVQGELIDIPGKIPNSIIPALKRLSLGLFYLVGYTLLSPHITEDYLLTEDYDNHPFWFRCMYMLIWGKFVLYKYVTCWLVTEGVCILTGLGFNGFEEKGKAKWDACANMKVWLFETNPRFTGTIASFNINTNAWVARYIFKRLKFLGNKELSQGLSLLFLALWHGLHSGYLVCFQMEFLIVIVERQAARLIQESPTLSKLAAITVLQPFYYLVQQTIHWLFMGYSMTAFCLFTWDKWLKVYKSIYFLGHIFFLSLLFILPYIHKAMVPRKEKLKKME
T30 sequence (Q9NX47 whole entry): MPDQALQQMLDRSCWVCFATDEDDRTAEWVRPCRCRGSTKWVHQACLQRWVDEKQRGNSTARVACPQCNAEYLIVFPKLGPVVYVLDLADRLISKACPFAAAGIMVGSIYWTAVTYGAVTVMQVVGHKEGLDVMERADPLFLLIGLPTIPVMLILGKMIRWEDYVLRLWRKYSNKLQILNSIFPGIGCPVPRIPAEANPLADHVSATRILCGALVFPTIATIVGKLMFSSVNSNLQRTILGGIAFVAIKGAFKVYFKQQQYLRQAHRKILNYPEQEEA
T24 sequence (Q96KC8 48-554): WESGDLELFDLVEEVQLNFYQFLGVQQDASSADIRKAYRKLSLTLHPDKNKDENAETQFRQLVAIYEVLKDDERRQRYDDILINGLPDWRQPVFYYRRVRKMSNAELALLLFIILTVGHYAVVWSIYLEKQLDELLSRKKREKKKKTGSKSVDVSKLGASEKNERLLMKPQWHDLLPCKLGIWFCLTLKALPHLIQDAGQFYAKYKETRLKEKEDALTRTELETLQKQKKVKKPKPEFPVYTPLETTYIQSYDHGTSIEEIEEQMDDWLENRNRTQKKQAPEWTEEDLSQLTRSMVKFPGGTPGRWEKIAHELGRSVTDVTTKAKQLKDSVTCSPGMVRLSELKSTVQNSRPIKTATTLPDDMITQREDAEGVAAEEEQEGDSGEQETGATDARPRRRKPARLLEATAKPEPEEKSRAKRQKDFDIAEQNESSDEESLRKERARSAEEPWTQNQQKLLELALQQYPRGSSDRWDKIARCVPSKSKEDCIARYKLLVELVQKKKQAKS
T14 sequence (Q15738 whole entry): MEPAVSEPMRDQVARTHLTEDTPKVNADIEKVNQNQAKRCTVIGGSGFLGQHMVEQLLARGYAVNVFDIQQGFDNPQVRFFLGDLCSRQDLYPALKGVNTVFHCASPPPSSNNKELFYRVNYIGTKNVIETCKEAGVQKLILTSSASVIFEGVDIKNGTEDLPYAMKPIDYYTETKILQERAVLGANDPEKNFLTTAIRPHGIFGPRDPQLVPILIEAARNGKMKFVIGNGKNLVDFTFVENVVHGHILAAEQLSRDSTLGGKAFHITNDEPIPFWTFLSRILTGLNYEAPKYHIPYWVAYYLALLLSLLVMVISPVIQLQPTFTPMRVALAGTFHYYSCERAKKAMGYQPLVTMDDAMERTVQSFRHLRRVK
T22 sequence (Q8NF37 whole entry): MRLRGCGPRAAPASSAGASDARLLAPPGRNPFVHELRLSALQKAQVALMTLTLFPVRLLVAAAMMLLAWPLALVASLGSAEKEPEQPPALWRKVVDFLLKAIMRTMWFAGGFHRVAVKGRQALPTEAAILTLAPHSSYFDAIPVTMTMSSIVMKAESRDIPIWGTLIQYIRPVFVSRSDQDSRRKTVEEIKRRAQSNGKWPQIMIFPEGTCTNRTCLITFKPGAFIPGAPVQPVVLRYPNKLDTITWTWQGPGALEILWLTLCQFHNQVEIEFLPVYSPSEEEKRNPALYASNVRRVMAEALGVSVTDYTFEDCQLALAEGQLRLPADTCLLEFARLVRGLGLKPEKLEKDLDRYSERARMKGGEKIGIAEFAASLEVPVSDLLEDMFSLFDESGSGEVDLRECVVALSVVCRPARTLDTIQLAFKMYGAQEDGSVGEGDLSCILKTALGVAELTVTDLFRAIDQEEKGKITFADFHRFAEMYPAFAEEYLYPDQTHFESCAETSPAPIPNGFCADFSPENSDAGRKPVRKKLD
T27 sequence (Q9H6K4 whole entry): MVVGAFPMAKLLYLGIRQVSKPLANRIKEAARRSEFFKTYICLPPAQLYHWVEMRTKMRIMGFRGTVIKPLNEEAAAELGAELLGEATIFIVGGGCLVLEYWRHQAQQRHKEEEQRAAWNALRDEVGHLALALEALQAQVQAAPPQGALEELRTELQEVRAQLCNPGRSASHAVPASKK
T26 sequence (Q9BTX1 whole entry): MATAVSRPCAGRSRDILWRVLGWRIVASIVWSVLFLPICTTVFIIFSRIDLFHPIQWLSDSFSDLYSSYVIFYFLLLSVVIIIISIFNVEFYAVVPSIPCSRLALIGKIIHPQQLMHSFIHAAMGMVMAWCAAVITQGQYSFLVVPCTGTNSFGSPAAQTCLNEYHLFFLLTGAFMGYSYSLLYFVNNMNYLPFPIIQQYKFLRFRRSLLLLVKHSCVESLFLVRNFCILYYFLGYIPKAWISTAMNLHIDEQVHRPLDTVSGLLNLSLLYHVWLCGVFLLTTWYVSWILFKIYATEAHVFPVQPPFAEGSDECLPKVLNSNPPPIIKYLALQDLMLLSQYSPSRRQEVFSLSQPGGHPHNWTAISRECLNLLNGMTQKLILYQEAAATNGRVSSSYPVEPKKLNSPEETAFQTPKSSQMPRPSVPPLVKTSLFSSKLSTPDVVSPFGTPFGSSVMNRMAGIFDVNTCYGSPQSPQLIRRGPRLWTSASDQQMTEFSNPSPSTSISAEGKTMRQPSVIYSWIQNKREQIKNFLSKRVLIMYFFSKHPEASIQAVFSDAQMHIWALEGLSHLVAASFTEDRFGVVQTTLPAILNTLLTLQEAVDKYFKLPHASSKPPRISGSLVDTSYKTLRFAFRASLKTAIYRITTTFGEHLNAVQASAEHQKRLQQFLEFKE
T23 sequence (Q96G23 whole entry): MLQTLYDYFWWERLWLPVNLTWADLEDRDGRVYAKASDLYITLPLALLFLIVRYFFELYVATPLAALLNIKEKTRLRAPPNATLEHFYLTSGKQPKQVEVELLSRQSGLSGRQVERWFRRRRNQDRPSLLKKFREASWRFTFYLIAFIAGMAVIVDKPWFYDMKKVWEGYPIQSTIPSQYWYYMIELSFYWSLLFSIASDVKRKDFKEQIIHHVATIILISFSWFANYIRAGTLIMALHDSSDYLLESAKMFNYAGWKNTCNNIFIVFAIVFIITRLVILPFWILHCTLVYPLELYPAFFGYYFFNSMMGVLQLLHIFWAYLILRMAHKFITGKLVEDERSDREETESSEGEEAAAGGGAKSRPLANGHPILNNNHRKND
T20 sequence (Q8IZV5 whole entry): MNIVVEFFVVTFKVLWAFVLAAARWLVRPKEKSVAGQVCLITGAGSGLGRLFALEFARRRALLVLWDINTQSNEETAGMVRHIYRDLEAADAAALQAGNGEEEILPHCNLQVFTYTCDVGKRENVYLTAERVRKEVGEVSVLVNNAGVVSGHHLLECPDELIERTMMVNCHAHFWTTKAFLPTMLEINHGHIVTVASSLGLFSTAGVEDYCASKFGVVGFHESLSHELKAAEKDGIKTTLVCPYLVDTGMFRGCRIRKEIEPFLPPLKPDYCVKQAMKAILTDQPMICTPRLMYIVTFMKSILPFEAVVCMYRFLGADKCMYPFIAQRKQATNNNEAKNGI

With C#CCCC/C=C\C/C=C\C/C=C\C/C=C\CCCC(=O)NCCC1(C)N=N1 [A-DA, (5Z,8Z,11Z,14Z)-N-(2-(3-methyl-3H-diazirin-3-yl)ethyl)icosa-5,8,11,14-tetraen-19-ynamide] the “SILAC ratio, No UV (A-DA probe versus No UV), Reep2 (Q8VCD6)” value [1] was 20.0, the “SILAC ratio, PGRMC2 (Q80UU9)” value [2] was 20.0 and the “SILAC ratio, DHRS3 (O75911)” value [3] was 15.6. For the same compound, the “SILAC ratio, SGPL1 (O95470)” value [4] was 19.7, the “SILAC ratio, No UV (A-DA probe versus No UV)” value [5] was 4.5 and the “SILAC ratio, PSAP (P07602)” value [6] was 20.0. The “SILAC ratio, VDAC1 (P21796)” value [7] was 20.0, the “SILAC ratio, HMOX2 (P30519)” value [8] was 20.0 and the “SILAC ratio of PTGS2, probe versus No UV” value ([9]; A-DA 5 μM) was 3.2. For the same compound, the “SILAC ratio, PTGS2 (P35354)” value ([9]; A-DA probe vs NoUV) was 3.2, the “SILAC ratio, VDAC2 (P45880)” value [10] was 19.7 and the “SILAC ratio, EMD (O08579)” value [11] was 10.3. For the same compound, the “SILAC ratio, SEC11A (P67812)” value [12] was 20.0, the “SILAC ratio, SQLE (Q14534)” value [13] was 20.0 and the “SILAC ratio, NSDHL (Q15738)” value [14] was 16.9. The “SILAC ratio, HSD17B12 (Q53GQ0)” value [15] was 20.0, the “SILAC ratio, COQ5 (Q5HYK3)” value [16] was 20.0 and the “SILAC ratio, LPCAT3 (Q6P1A2)” value [17] was 20.0. For the same compound, the “SILAC ratio, ERMP1 (Q7Z2K6)” value [18] was 20.0, the “SILAC ratio, ANKLE2 (Q86XL3)” value [19] was 20.0 and the “SILAC ratio, RDH10 (Q8IZV5)” value [20] was 20.0. The “SILAC ratio, DHRSX (Q8N5I4)” value [21] was 20.0, the “SILAC ratio, LPCAT1 (Q8NF37)” value [22] was 20.0 and the “SILAC ratio, CERS2 (Q924Z4)” value [23] was 13.3. The “SILAC ratio, DNAJC1 (Q96KC8)” value [24] was 20.0, the “SILAC ratio, VAT1 (Q99536)” value [25] was 7.8 and the “SILAC ratio, TMEM48 (Q8VCB1)” value [26] was 20.0. The “SILAC ratio, OPA3 (Q505D7)” value [27] was 20.0, the “SILAC ratio, UGT1A7 (Q9HAW7)” value [28] was 20.0 and the “SILAC ratio, TOMM22 (Q9CPQ3)” value [29] was 18.4. The “SILAC ratio, MARCH5 (Q3KNM2)” value [30] was 4.1, the “SILAC ratio, No UV (A-DA probe versus No UV)” value [31] was 20.0 and the “SILAC ratio, NPTN (Q9Y639)” value [32] was 20.0.
